Patent US3975529A, “Diebenzo(B,E)thiepines” (Roussel-UCLAF, priority 1974, dated 1976)

Columns and labels:
Assay type in all cases: in vivo, mice
[1] = tested on: antinociceptive activity of oxotremorine; assay: Antagonism of antinociceptive activity of oxotremorine, hot plate (Table III)
Method: The antinociceptive activity of oxotremorine [Leslie, J. Pharm. Pharmae., Vol. 2 (1969), p. 248-50] was determined on mice using the hot plate method of Eddy et al [J. Pharmacol. Vol. 107 (1953), p. 385] in the presence and absence of the test product presumed to be antagonistic. The product of Example 1 was administered subcutaneously in aqueous solution at doses of 50 and 100 mg/kg to groups of 10 mice and the products of Examples 2 to 5 were subcutaneously administered in sesame oil solution at doses of 200 and 400 mg/kg to groups of 10 mice. The mice then received a single intraperitoneal injection of 0.5 mg/kg of oxotremorine either 4 hours, 1 day, 2, 3, 4 or 7 days after the test product administration. For each time considerated, the mice were placed on the hot plate one half hour after the oxotremorine administration and the time for the appearance of nociceptive refluxes consistituted by simultaneous licking of the front paws was noted. The maximum time of staying on the hot plate was fixed at 45 seconds and the percentage of animals with a reaction time (RT) less than 40 seconds in spite of oxotremorine administration was determined.

[2] = tested on: trembling and peripherial cholinergic manifestations provoked by oxotremorine; assay: Antioxotremorine activity: antagonism to the trembling and peripherial cholinergic manifestations (Table II)
Method: The antagonism of the test products to the trembling and peripherial cholinergic manifestations provoked by oxotremorine [Cho et al, J. Biochem. Biophys. Res. Commun., Vol. 5, (196l) p. 276] was studied on mice. The product of Example 1 was administered subcutaneously in aqueous solution at doses of 50 and 100 mg/kg to groups of 10 mice and the products of Example 2 were subcutaneously administered in sesame oil solution at doses of 200 and 400 mg/kg to groups of 10 mice. Control animals received no vehicle. The mice then received a single intraperitoneal dose of 0.5 mg/kg of oxotremorine either 4 hours, 1 day, 2, 3, 4 or 7 days after the injection of the test product. The reaction of the animals as in Table I were recorded 5,10 and 15 minutes after the injection of oxotremorine and the percent of inhibition of the different reactions, at the height of the effect, after the oxotremorine injection was determined as a function of time.

[3] = tested on: trembling and peripherical cholinergic manifestations provoked by tremorine; assay: Antitremorine activity as a function of time (Table I)
Method: The antagonism of the test compounds to the trembling and peripherical cholinergic manifestations provoked by tremorine [Everett et al, Science, Vol. 124 (1956), p. 79] was studied on mice.
The products of Examples 2 and 3 were administered subcutaneously in sesame oil solution at doses of 200 and 400 mg/kg at a volume of 25 ml/kg to groups of 10 mice. The mice receied intraperitoneal injections of 20 mg/kg of tremorine either for 4 hours, one day, 2, 3 or 4 days after injection of the test product. […] The reactions (T-trembling; S-salivation; L-lacrymation) were noted 10, 20, 30 and 60 minutes after the tremorine injection and the percent of inhibition of the different reactions at the height of the effect after injection of tremorine were noted as a function of time.

[4] = 200 mg/kg s.c. sesame oil, after 4 h
[5] = 200 mg/kg s.c. sesame oil, after 1 d
[6] = 200 mg/kg s.c. sesame oil, after 2 d
[7] = 200 mg/kg s.c. sesame oil, after 3 d
[8] = 200 mg/kg s.c. sesame oil, after 4 d
[9] = 200 mg/kg s.c. sesame oil, after 7 d
[10] = 400 mg/kg s.c. sesame oil, after 4 h
[11] = 400 mg/kg s.c. sesame oil, after 1 d
[12] = 400 mg/kg s.c. sesame oil, after 2 d
[13] = 400 mg/kg s.c. sesame oil, after 3 d
[14] = 400 mg/kg s.c. sesame oil, after 4 d
[15] = 400 mg/kg s.c. sesame oil, after 7 d

Structure (SMILES): CCCCCCCCCC(=O)OCCN1C2CCC1CC(=C1c3ccccc3CSc3ccccc31)C2 (racemic) [Example 4, dl N-(β-decanoyloxyethyl)-11-(3'-nortropylidene)-6,11-dihydrodibenzo(b,e)thiepine]
- % of animals with a RT less than 40 seconds [1, 4]: 100%
- % of animals with a RT less than 40 seconds [1, 5]: 30%
- % of animals with a RT less than 40 seconds [1, 6]: 30%
- % of animals with a RT less than 40 seconds [1, 7]: 10%
- % of animals with a RT less than 40 seconds [1, 8]: 0%
- % of animals with a RT less than 40 seconds [1, 9]: 20%
- % of animals with a RT less than 40 seconds [1, 10]: 100%
- % of animals with a RT less than 40 seconds [1, 11]: 60%
- % of animals with a RT less than 40 seconds [1, 12]: 30%
- % of animals with a RT less than 40 seconds [1, 13]: 30%
- % of animals with a RT less than 40 seconds [1, 14]: 0%
- % of animals with a RT less than 40 seconds [1, 15]: 30%

Structure (SMILES): CCC(=O)OCCN1C2CCC1CC(=C1c3ccccc3CSc3ccccc31)C2 (racemic) [Example 2, dl N-(β-propionyloxyethyl)-11-(3'-nortropylidene)-6,11-dihydrodibenzo(b,e)thiepine]
- % of animals with a RT less than 40 seconds [1, 4]: 100%
- % of animals with a RT less than 40 seconds [1, 5]: 100%
- % of animals with a RT less than 40 seconds [1, 6]: 90%
- % of animals with a RT less than 40 seconds [1, 7]: 50%
- % of animals with a RT less than 40 seconds [1, 8]: 60%
- % of animals with a RT less than 40 seconds [1, 9]: 30%
- % of animals with a RT less than 40 seconds [1, 10]: 100%
- % of animals with a RT less than 40 seconds [1, 11]: 100%
- % of animals with a RT less than 40 seconds [1, 12]: 100%
- % of animals with a RT less than 40 seconds [1, 13]: 80%
- % of animals with a RT less than 40 seconds [1, 14]: 90%
- % of animals with a RT less than 40 seconds [1, 15]: 20%
- % inhibition of reactions: L (lacrymation) [2, 4]: 100%
- % inhibition of reactions: S (salivation) [2, 4]: 80%
- % inhibition of reactions: T (trembling) [2, 4]: 80%
- % inhibition of reactions: L (lacrymation) [2, 5]: 100%
- % inhibition of reactions: S (salivation) [2, 5]: 90%
- % inhibition of reactions: T (trembling) [2, 5]: 100%
- % inhibition of reactions: L (lacrymation) [2, 6]: 70%
- % inhibition of reactions: S (salivation) [2, 6]: 30%
- % inhibition of reactions: T (trembling) [2, 6]: 30%
- % inhibition of reactions: L (lacrymation) [2, 7]: 30%
- % inhibition of reactions: S (salivation) [2, 7]: 10%
- % inhibition of reactions: T (trembling) [2, 7]: 0%
- % inhibition of reactions: L (lacrymation) [2, 8]: 11%
- % inhibition of reactions: S (salivation) [2, 8]: 0%
- % inhibition of reactions: L (lacrymation) [2, 9]: 10%
- % inhibition of reactions: S (salivation) [2, 9]: 0%
- % inhibition of reactions: T (trembling) [2, 9]: 0%
- % inhibition of reactions: L (lacrymation) [2, 10]: 100%
- % inhibition of reactions: S (salivation) [2, 10]: 100%
- % inhibition of reactions: T (trembling) [2, 10]: 100%
- % inhibition of reactions: L (lacrymation) [2, 11]: 100%
- % inhibition of reactions: S (salivation) [2, 11]: 100%
- % inhibition of reactions: T (trembling) [2, 11]: 100%
- % inhibition of reactions: L (lacrymation) [2, 12]: 80%
- % inhibition of reactions: S (salivation) [2, 12]: 60%
- % inhibition of reactions: T (trembling) [2, 12]: 70%
- % inhibition of reactions: L (lacrymation) [2, 13]: 10%
- % inhibition of reactions: S (salivation) [2, 13]: 20%
- % inhibition of reactions: T (trembling) [2, 13]: 0%
- % inhibition of reactions: L (lacrymation) [2, 14]: 67%
- % inhibition of reactions: S (salivation) [2, 14]: 20%
- % inhibition of reactions: T (trembling) [2, 14]: 20%
- % inhibition of reactions: L (lacrymation) [2, 15]: 20%
- % inhibition of reactions: S (salivation) [2, 15]: 20%
- % inhibition of reactions: T (trembling) [2, 15]: 10%
- antioxotremorine activity (in words) ([2]; s.c. sesame oil, mice, Table II): prolonged antioxotremorine activity
- % inhibition of reactions: L (lacrymation) [3, 4]: 100%
- % inhibition of reactions: S (salivation) [3, 4]: 90%
- % inhibition of reactions: T (trembling) [3, 4]: 100%
- % inhibition of reactions: L (lacrymation) [3, 5]: 100%
- % inhibition of reactions: S (salivation) [3, 5]: 90%
- % inhibition of reactions: T (trembling) [3, 5]: 90%
- % inhibition of reactions: L (lacrymation) [3, 6]: 40%
- % inhibition of reactions: S (salivation) [3, 6]: 0%
- % inhibition of reactions: T (trembling) [3, 6]: 0%
- % inhibition of reactions: L (lacrymation) [3, 7]: 100%
- % inhibition of reactions: S (salivation) [3, 7]: 50%
- % inhibition of reactions: T (trembling) [3, 7]: 20%
- % inhibition of reactions: L (lacrymation) [3, 8]: 60%
- % inhibition of reactions: S (salivation) [3, 8]: 0%
- % inhibition of reactions: T (trembling) [3, 8]: 0%
- % inhibition of reactions: L (lacrymation) [3, 10]: 100%
- % inhibition of reactions: S (salivation) [3, 10]: 100%
- % inhibition of reactions: T (trembling) [3, 10]: 100%
- % inhibition of reactions: L (lacrymation) [3, 11]: 100%
- % inhibition of reactions: S (salivation) [3, 11]: 100%
- % inhibition of reactions: T (trembling) [3, 11]: 100%
- % inhibition of reactions: L (lacrymation) [3, 12]: 100%
- % inhibition of reactions: S (salivation) [3, 12]: 70%
- % inhibition of reactions: T (trembling) [3, 12]: 40%
- % inhibition of reactions: L (lacrymation) [3, 13]: 100%
- % inhibition of reactions: S (salivation) [3, 13]: 20%
- % inhibition of reactions: T (trembling) [3, 13]: 10%
- % inhibition of reactions: L (lacrymation) [3, 14]: 60%
- % inhibition of reactions: S (salivation) [3, 14]: 90%
- % inhibition of reactions: T (trembling) [3, 14]: 50%
- antitremorine activity (in words) ([3]; s.c. sesame oil, mice, Table I): prolonged antitremorine activity
